Data: US5189046A, “Protein kinase C modulators” (Nova Pharmaceutical Corporation, priority 1991, dated 1993)
Structures can show the parent of a compound that is named as a salt. Where two headings read alike, the source gives them in different places.

Columns and labels:
[1] = tested on: protein kinase C from mouse brains; assay: 3H-Phorbol dibutyrate binding (inhibition of binding of phorbol ester to protein kinase C); details: for IC50: IC50 determined with program EBDA
Protocol: The ability of active compounds to inhibit the binding of phorbol ester to protein kinase C from mouse brains was measured as follows. Mouse brains were homogenized in ice-cold 50 mM Tris buffer, pH 7.4, containing 0.5 mM CaCl2, in a 15 mL Dounce homogenizer with 10 gentle strokes. The homogenate was centrifuged at 100,000×g for 1 hour at 4° C. The pellets were resuspended in 25 mL of the same ice-cold buffer and protein concentration was adjusted to 0.4 mg/mL. To each binding tube was added […] of the buffer, […] of [20-^3 H]Phorbol 12,13-dibutyrate, […] final concentration in assay, […] of test drug or displacing ligand, 50 uL of 50 mM Tris, pH 7.4 at 25° C. containing 1% bovine serum albumin, and […] enzyme preparation. Tubes were incubated at 37° C. for 30 minutes, then terminated by filtration onto Whatman GF/B glass fiber filters followed by washing with 2 mL ice-cold 50 mM Tris, pH 7.4, four times. Nonspecific binding was defined as that binding occurring in the presence of 1 mM phorbol ester. Percent inhibition was determined for each inhibitor candidate, and IC50 values were determined using the computer program "EBDA".

[2] = molecular target: Protein kinase C from mouse brain; assay: Inhibition of PKC phosphorylation of histone; type: biochemical
Protocol: Protein kinase C from mouse brain was used in the screening protocol since it contains several isozymes of the enzyme. The tissue was prepared by homogenizing two mouse brains minus the cerebelli in 5 ml of 25 mM Tris-HCl,pH 7.4, containing 2 mM ethylenediamine tetraacetic acid (EDTA) and 1 mM ethylene glycol tetraacetic acid (EGTA), using a polytron at setting 5 for 15 seconds. The homogenate was centrifuged for 1 hour at 50,000×g at 4° C. The supernatant was used as the source of enzyme. The standard reaction mixture (250 μl) contained 20 mM Tris-HCl,pH 7.5, 10 mM Mg (CH3 COO)2, 400 μM CaCl2, 0.1 mM EGTA, […] [γ-^32 P] ATP (1200 cpm/pmol), 100 μg/ml phosphatidylserine, 10 μM histone, 1 μM phorbol 12-myristate-13-acetate, 10 μl enzyme preparation and 25 μl water or test drug. The mixture was incubated at 30° C. for 5 minutes. Mixtures were removed to an ice-bath, a 50 μl aliquot of each was added to Whatman P81 paper and washed in 10% TCA for 20 minutes. The paper was then washed with ethanol, followed by ethyl ether and finally air dryed. PKC activity was quantitated by liquid scintillation counting.

[3] = tested on: Protein kinase A catalytic subunit; assay: Inhibition of protein kinase A phosphorylation of histone; type: biochemical; details: for PKA percent inhibition (phosphorylation of histone): percent inhibition at the maximum concentration tested 100 μM
Protocol: Protein kinase A activity was determined as follows. Protein kinase A catalytic subunit was purchased from Sigma Chemical Company. […] Incubation was at 30° C. for 5 minutes, then the assay was completed as described for protein kinase C above.

[4] = mouse brain PKC, histone, 30° C., 5 minutes, read-out: PKC IC50 (phosphorylation of histone)
[5] = text summary of Table IV, read-out: IC50, inhibition of phosphorylation by PKC

Structure (SMILES)	% inhibition @ 100 μM (3H-phorbol dibutyrate binding) ([1]; dihydrochloride)	IC50 ([1]; dihydrochloride)	IC50 [2, 4]	IC50 [2, 5]	PKA percent inhibition (phosphorylation of histone) [3]	% inhibition @ 100 μM (3H-phorbol dibutyrate binding) [1]	IC50 [1]	IC50 ([3]; reference standards only, read-out: PKA IC50 (phosphorylation of histone))
CCCCCCCCCCCCC(=O)N1CCCCC1CNC(=O)[C@@H](N)CCCCN (stereo partly shown) [2,6-diamino-N-([1-(1-oxotridecyl)-2-piperidinyl]methyl)hexan] [2,6-Diamino-N-([1-(1-oxotridecyl)-2-piperidinyl]methyl)hexanamide dihydrochloride]	22%	191 µM	13 µM	13 µM	0%			
CCCCCCCCCCCCC(=O)N1CCCCC1CNC(=O)[C@@H](N)CCCCN (stereo partly shown) [2,6-diamino-N-([1-(1-oxotridecyl)-2-piperidinyl]methylhexana] [2,6-diamino-N-([1-(1-oxotridecyl)-2-piperidinyl]methylhexanamidedihydrochloride]	47%	133 µM						
CCCCCCCCCCCCC(=O)N1CCCCC1CNC(=O)[C@@H](N)CO (stereo partly shown) [2-Amino-3-hydroxy-N-([1-(1-oxotridecyl)-2-piperidinyl]methyl)propanamide hydrochloride]			44 µM		0%	9%		
CCCCCCCCCCCCC(=O)N1CCCCC1CNC(=O)[C@@H](N)Cc1c[nH]cn1 (stereo partly shown) [2-Amino-N-([1-(1-oxotridecyl)-2-piperidinyl]methyl)-3-(1H-imidazol-4-yl)propanamide dihydrochloride]			60 µM		0%	28%	343 µM	
CCCCCCCCCCCCC(=O)N1CCCCC1CNC(=O)CN.Cl (stereo not shown) [2-Amino-N-([1-(1-oxotridecyl)-2-piperidinyl]methyl)ethanamide hydrochloride]			51 µM		0%	21%		
CCCCCCCCCCCCC(=O)N1CCCCC1CNC(=O)[C@H](C)N (stereo partly shown) [2-Amino-N-([1-(1-oxotridecyl)-2-piperidinyl]methyl)propanamide hydrochloride]			52 µM		0%	49%		
CCCCCCCCCCCCC(=O)N1CCCCC1CNC(=O)[C@@H](N)CCCN (stereo partly shown) [2.5-Diamino-N-([1-(1-oxotridecyl)-2-piperidinyl]methyl)pentanamide dihydrochloride]			18 µM		0%			
CCCCCCCCCCCC(=O)N1CCC[C@H]1CNC(=O)[C@@H](N)CCCCN [2.6-Diamino-N-([1-(1-oxododecyl)-2-pyrrolidinyl]methyl)hexanamide dihydrochloride]			46 µM		0%			
CCCCCCCCCCCCC(=O)N1CCCCC1CNC(=O)[C@@H](N)CC(=O)OCc1ccccc1 (stereo partly shown) [3-Amino-4-oxo-4-[([1-(1-oxotridecyl)-2-piperidinyl]methyl)amino]butanoic acid phenylmethyl ester hydrochloride]			92 µM	92 µM	0%	2%		
CCCCCCCCCCCCC(=O)N1CCCCC1CNC(=O)CCN.O=C(O)/C=C/C(=O)O (stereo not shown) [3-Amino-N-([1-(1-oxotridecyl)-2-piperidinyl]methyl)propanamide fumarate]			36 µM		0%	45%	139 µM	
CCCCCCCCCCCCC(=O)N1CCCCC1CNC(=O)[C@@H](N)CCC(N)=O (stereo partly shown) [4-Amino-5-oxo-5-[([1-(1-oxotridecyl)-2-piperidinyl]methyl)amino]pentanamide hydrochloride]			72 µM		0%	17%		
CC1CNCCN1S(=O)(=O)c1cccc2cnccc12 (stereo not shown) [Example H-7, reference compound]			9 µM					28 µM
CCCCCCCCCCCCC(=O)N1CCCCC1CNC(=O)C1CCCNC1 (stereo not shown) [N-[([1-Oxotridecyl)-2-piperidinyl]methyl)amino]3-methyloxopiperidine hydrochloride]			29 µM		0%	34%	157 µM	
CCCCCCCCCCCCC/C=C/[C@@H](O)[C@@H](N)CO [Sphingosine, reference compound]			15 µM		88%			
